According to patent publication US20140343000A1 (priority 2011, published 2014):

tested on: recombinant NL4-3 virus (Renilla luciferase in nef, Gag P373S; NLRluc) in MT-2 cells; experiment: whole plant or invertebrate; format: cell-based, HIV; settings: Renilla, NL43
Summary of the method: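 Luciferase signal is the read-out: after 4-5 days of infection in the presence of serially diluted compound, MT-2 cells are lysed with a premix of lysis buffer, luciferase reagent and Stop & Glo substrate, and luminescence is read immediately.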

Row | SMILES | EC50
1 | C=C(C)[C@@H]1CC[C@]2(NCCN3CCS(=O)(=O)CC3)CC[C@]3(C)[C@H](CC[C@@H]4[C@@]5(C)CC=C(c6ccc(C(=O)O[C@H]7O[C@H](C(=O)O)[C@@H](O)[C@H](O)[C@H]7O)cc6)C(C)(C)[C@@H]5CC[C@]43C)[C@@H]12 [Example B7B, (2S,3S,4S,5R,6R)-6-((4-((1R,3aS,5aR,5bR,7aR,11aS,11bR,13aR,13bR)-3a-((2-(1,1-dioxidothiomorpholino)ethyl)amino)-5a,5b,8,8,11a-pentamethyl-1-(prop-1-en-2-yl)-2,3,3a,4,5,5a,5b,6,7,7a,8,11,11a,11b,12,13,13a,13b-octadecahydro-1H-cyclopenta[a]chrysen-9-yl)benzoyl)oxy)-3,4,5-trihydroxytetrahydro-2H-pyran-2-carboxylic acid] | < 100 nM
2 | C=C(C)[C@@H]1CC[C@]2(NCCNC3CCS(=O)(=O)C3)CC[C@]3(C)[C@H](CC[C@@H]4[C@@]5(C)CC=C(c6ccc(C(=O)O)cc6)C(C)(C)[C@@H]5CC[C@]43C)[C@@H]12 (stereo partly drawn) [Example B8, 4-((1R,3aS,5aR,5bR,7aR,11aS,11bR,13aR,13bR)-3a-((2-((1,1-dioxidotetrahydrothiophen-3-yl)amino)ethyl)amino)-5a,5b,8,8,11a-pentamethyl-1-(prop-1-en-2-yl)-2,3,3a,4,5,5a,5b,6,7,7a,8,11,11a,11b,12,13,13a,13b-octadecahydro-1H-cyclopenta[a]chrysen-9-yl)benzoic acid] | < 100 nM

same assay, conditions: Renilla, NL43, luciferase activity in cells infected for 4-5 days with NLRluc recombinants, serial dilutions of inhibitor; class symbols (key in Table 1); read-out: EC50

Row | SMILES | EC50
3 | CC(C)[C@@H]1CC[C@]2(NCCN3CCS(=O)(=O)CC3)CC[C@]3(C)[C@H](CC[C@@H]4[C@@]5(C)CC[C@H](c6ccc(C(=O)O)cc6)C(C)(C)[C@@H]5CC[C@]43C)[C@@H]12 [Example B2, 4-((1S,3aS,5aR,5bR,7aS,9S,11aS,11bR,13aR,13bR)-3a-((2-(1,1-dioxidothiomorpholino)ethyl)amino)-1-isopropyl-5a,5b,8,8,11a-pentamethylicosahydro-1H-cyclopenta[a]chrysen-9-yl)benzoic acid] | < 100 nM
4 | CC(C)[C@@H]1CC[C@]2(N)CC[C@]3(C)[C@H](CC[C@@H]4[C@@]5(C)CC[C@H](c6ccc(C(=O)O)cc6)C(C)(C)[C@@H]5CC[C@]43C)[C@@H]12 [Example B3, 4-((1S,3aS,5aR,5bR,7aS,9S,11aS,11bR,13aR,13bR)-3a-amino-1-isopropyl-5a,5b,8,8,11a-pentamethylicosahydro-1H-cyclopenta[a]chrysen-9-yl)benzoic acid] | < 100 nM
5 | CC(C)[C@@H]1CC[C@]2(NCCN3CCOCC3)CC[C@]3(C)[C@H](CC[C@@H]4[C@@]5(C)CC[C@H](c6ccc(C(=O)O)cc6)C(C)(C)[C@@H]5CC[C@]43C)[C@@H]12 [Example B4] | < 100 nM
6 | CC(C)[C@@H]1CC[C@]2(NCCN(C)C)CC[C@]3(C)[C@H](CC[C@@H]4[C@@]5(C)CC[C@H](c6ccc(C(=O)O)cc6)C(C)(C)[C@@H]5CC[C@]43C)[C@@H]12 [Example B5, 4-((1S,3aS,5aR,5bR,7aS,9S,11aS,11bR,13aR,13bR)-3a-((2-(dimethylamino)ethyl)amino)-1-isopropyl-5a,5b,8,8,11a-pentamethylicosahydro-1H-cyclopenta[a]chrysen-9-yl)benzoic acid] | < 100 nM
7 | CC(C)[C@@H]1CC[C@]2(N(CCN(C)C)CCN(C)C)CC[C@]3(C)[C@H](CC[C@@H]4[C@@]5(C)CC[C@H](c6ccc(C(=O)O)cc6)C(C)(C)[C@@H]5CC[C@]43C)[C@@H]12 [Example B6, 4-((1S,3aS,5aR,5bR,7aS,9S,11aS,11bR,13aR,13bR)-3a-(bis(2-(dimethylamino)ethyl)amino)-1-isopropyl-5a,5b,8,8,11a-pentamethylicosahydro-1H-cyclopenta[a]chrysen-9-yl)benzoic acid] | < 100 nM
8 | C=C(C)[C@@H]1CC[C@]2(NCCN3CCS(=O)(=O)CC3)CC[C@]3(C)[C@H](CC[C@@H]4[C@@]5(C)CC=C(c6ccc(C(=O)O[C@H]7O[C@H](C(=O)OCc8ccccc8)[C@@H](O)[C@H](O)[C@H]7O)cc6)C(C)(C)[C@@H]5CC[C@]43C)[C@@H]12 [Example B7A, (2S,3S,4S,5R,6R)-benzyl 6-((4-((1R,3aS,5aR,5bR,7aR,11aS,11bR,13aR,13bR)-3a-((2-(1,1-dioxidothiomorpholino)ethyl)amino)-5a,5b,8,8,11a-pentamethyl-1-(prop-1-en-2-yl)-2,3,3a,4,5,5a,5b,6,7,7a,8,11,11a,11b,12,13,13a,13b-octadecahydro-1H-cyclopenta[a]chrysen-9-yl)benzoyl)oxy)-3,4,5-trihydroxytetrahydro-2H-pyran-2-carboxylate] | < 100 nM
9 | CNC(=O)CN[C@]12CC[C@@H](C(C)C)[C@@H]1[C@H]1CC[C@@H]3[C@@]4(C)CC[C@H](c5ccc(C(=O)O)cc5)C(C)(C)[C@@H]4CC[C@@]3(C)[C@]1(C)CC2 [Example B10, 4-((1S,3aS,5aR,5bR,7aS,9S,11aS,11bR,13aR,13bR)-1-isopropyl-5a,5b,8,8,11a-pentamethyl-3a-((2-(methylamino)-2-oxoethyl)amino)icosahydro-1H-cyclopenta[a]chrysen-9-yl)benzoic acid] | < 100 nM
10 | CC(C)[C@@H]1CC[C@]2(NCCCN3CCOCC3)CC[C@]3(C)[C@H](CC[C@@H]4[C@@]5(C)CC=C(c6ccc(C(=O)O)cc6)C(C)(C)[C@@H]5CC[C@]43C)[C@@H]12 [Example B11, 4-((1S,3aS,5aR,5bR,7aR,11aS,11bR,13aR,13bR)-1-isopropyl-5a,5b,8,8,11a-pentamethyl-3a-((3-morpholinopropyl)amino)-2,3,3a,4,5,5a,5b,6,7,7a,8,11,11a,11b,12,13,13a,13b-octadecahydro-1H-cyclopenta[a]chrysen-9-yl)benzoic acid] | < 100 nM
11 | C=C(C)[C@@H]1CC[C@]2(NCCC(=O)O)CC[C@]3(C)[C@H](CC[C@@H]4[C@@]5(C)CC=C(c6ccc(C(=O)O)cc6)C(C)(C)[C@@H]5CC[C@]43C)[C@@H]12 [Example B12, 4-((1R,3aS,5aR,5bR,7aR,11aS,11bR,13aR,13bR)-3a-((2-carboxyethyl)amino)-5a,5b,8,8,11a-pentamethyl-1-(prop-1-en-2-yl)-2,3,3a,4,5,5a,5b,6,7,7a,8,11,11a,11b,12,13,13a,13b-octadecahydro-1H-cyclopenta[a]chrysen-9-yl)benzoic acid] | < 100 nM
12 | C=C(C)[C@@H]1CC[C@]2(NCCN3CCN(C(=O)OC(C)(C)C)CC3)CC[C@]3(C)[C@H](CC[C@@H]4[C@@]5(C)CC=C(c6ccc(C(=O)O)cc6)C(C)(C)[C@@H]5CC[C@]43C)[C@@H]12 [Example B13, 4-((1R,3aS,5aR,5bR,7aR,11aS,11bR,13aR,13bR)-3a-((2-(4-(tert-butoxycarbonyl)piperazin-1-yl)ethyl)amino)-5a,5b,8,8,11a-pentamethyl-1-(prop-1-en-2-yl)-2,3,3a,4,5,5a,5b,6,7,7a,8,11,11a,11b,12,13,13a,13b-octadecahydro-1H-cyclopenta[a]chrysen-9-yl)benzoic acid] | < 100 nM
13 | C=C(C)[C@@H]1CC[C@]2(NCCN3CCC(S(C)(=O)=O)CC3)CC[C@]3(C)[C@H](CC[C@@H]4[C@@]5(C)CC=C(c6ccc(C(=O)O)cc6)C(C)(C)[C@@H]5CC[C@]43C)[C@@H]12 [Example B14, 4-((1R,3aS,5aR,5bR,7aR,11aS,11bR,13aR,13bR)-5a,5b,8,8,11a-pentamethyl-3a-((2-(4-(methylsulfonyl)piperidin-1-yl)ethyl)amino)-1-(prop-1-en-2-yl)-2,3,3a,4,5,5a,5b,6,7,7a,8,11,11a,11b,12,13,13a,13b-octadecahydro-1H-cyclopenta[a]chrysen-9-yl)benzoic acid] | < 100 nM
14 | C=C(C)[C@@H]1CC[C@]2(NCCN3CCN(S(C)(=O)=O)CC3)CC[C@]3(C)[C@H](CC[C@@H]4[C@@]5(C)CC=C(c6ccc(C(=O)O)cc6)C(C)(C)[C@@H]5CC[C@]43C)[C@@H]12 [Example B15, 4-((1R,3aS,5aR,5bR,7aR,11aS,11bR,13aR,13bR)-5a,5b,8,8,11a-pentamethyl-3a-((2-(4-(methylsulfonyl)piperazin-1-yl)ethyl)amino)-1-(prop-1-en-2-yl)-2,3,3a,4,5,5a,5b,6,7,7a,8,11,11a,11b,12,13,13a,13b-octadecahydro-1H-cyclopenta[a]chrysen-9-yl)benzoic acid] | < 100 nM
15 | CC(C)[C@@H]1CC[C@]2(NCCN3CCN(S(C)(=O)=O)CC3)CC[C@]3(C)[C@H](CC[C@@H]4[C@@]5(C)CC[C@H](c6ccc(C(=O)O)cc6)C(C)(C)[C@@H]5CC[C@]43C)[C@@H]12 [Example B16, 4-((1S,3aS,5aR,5bR,7aS,9S,11aS,11bR,13aR,13bR)-1-isopropyl-5a,5b,8,8,11a-pentamethyl-3a-((2-(4-(methylsulfonyl)piperazin-1-yl)ethyl)amino)icosahydro-1H-cyclopenta[a]chrysen-9-yl)benzoic acid] | < 100 nM
16 | C=C(C)[C@@H]1CC[C@]2(NCCN3CC4(COC4)C3)CC[C@]3(C)[C@H](CC[C@@H]4[C@@]5(C)CC=C(c6ccc(C(=O)O)cc6)C(C)(C)[C@@H]5CC[C@]43C)[C@@H]12 [Example B17, 4-((1R,3aS,5aR,5bR,7aR,11aS,11bR,13aR,13bR)-3a-((2-(2-oxa-6-azaspiro[3.3]heptan-6-yl)ethyl)amino)-5a,5b,8,8,11a-pentamethyl-1-(prop-1-en-2-yl)-2,3,3a,4,5,5a,5b,6,7,7a,8,11,11a,11b,12,13,13a,13b-octadecahydro-1H-cyclopenta[a]chrysen-9-yl)benzoic acid] | < 100 nM

same assay, conditions: Renilla, NL43, luciferase activity in cells infected for 4-5 days with NLRluc recombinants, serial dilutions of inhibitor; numeric values; read-out: EC50

Row | SMILES | EC50
17 | CC(C)NC(=O)CN[C@]12CC[C@@H](C(C)C)[C@@H]1[C@H]1CC[C@@H]3[C@@]4(C)CC[C@H](c5ccc(C(=O)O)cc5)C(C)(C)[C@@H]4CC[C@@]3(C)[C@]1(C)CC2 [Example B9] | 10 nM
